In brackets after ≈: the same amount, converted by molar mass.
What was measured:
[1] = test system: Streptococcus sp. 'group B'; assay: Antimicrobial activity against group B Streptococcus sp. 'group B' serotype V isolate 9171-03 by broth dilution method; assay type: functional
[2] = test system: Streptococcus sp. 'group B'; assay: Antimicrobial activity against group B Streptococcus sp. 'group B' isolate 6149-03 by broth dilution method; assay type: functional
[3] = test system: Streptococcus sp. 'group B'; assay: Antimicrobial activity against group B Streptococcus sp. 'group B' serotype IA isolate 9012-04 by broth dilution method; assay type: functional
[4] = test system: Streptococcus sp. 'group B'; assay: Antimicrobial activity against group B Streptococcus sp. 'group B' serotype III isolate 6138-03 expressing pbp2x Q557E mutant and multilocus sequence type ST19 by broth dilution method; assay type: functional
[5] = test system: Streptococcus sp. 'group B'; assay: Antimicrobial activity against group B Streptococcus sp. 'group B' serotype III isolate 8607-03 expressing pbp2x Q557E mutant and multilocus sequence type ST19 by broth dilution method; assay type: functional
[6] = test system: Streptococcus sp. 'group B'; assay: Antimicrobial activity against group B Streptococcus sp. 'group B' isolate 7368-04 by broth dilution method; assay type: functional
[7] = test system: Streptococcus sp. 'group B'; assay: Antimicrobial activity against group B Streptococcus sp. 'group B' serotype IA isolate 7490-03 by broth dilution method; assay type: functional
[8] = test system: Streptococcus sp. 'group B'; assay: Antimicrobial activity against group B Streptococcus sp. 'group B' isolate 4214-03 by broth dilution method; assay type: functional
[9] = test system: Streptococcus sp. 'group B'; assay: Antimicrobial activity against group B Streptococcus sp. 'group B' serotype II isolate 3776-04 by broth dilution method; assay type: functional
[10] = test system: Streptococcus sp. 'group B'; assay: Antimicrobial activity against group B Streptococcus sp. 'group B' serotype III isolate 8607 with chromosomal pbp2x(Q557E) replaced by wild-type pbp2x through allelic exchange by broth dilution method
[11] = test system: Streptococcus sp. 'group B'; assay: Antimicrobial activity against group B Streptococcus sp. 'group B' serotype III isolate 8607-03 expressing pbp2x Q557E mutant and harboring empty vector by broth dilution method; assay type: functional
[12] = test system: Streptococcus sp. 'group B'; assay: Antimicrobial activity against group B Streptococcus sp. 'group B' serotype III isolate 7037-99 by broth dilution method; assay type: functional
[13] = test system: Streptococcus sp. 'group B'; assay: Antimicrobial activity against group B Streptococcus sp. 'group B' serotype IA isolate 3047-05 by broth dilution method; assay type: functional
[14] = test system: Streptococcus sp. 'group B'; assay: Antimicrobial activity against group B Streptococcus sp. 'group B' serotype V isolate 4857-03 by broth dilution method; assay type: functional
[15] = test system: Streptococcus sp. 'group B'; assay: Antimicrobial activity against group B Streptococcus sp. 'group B' serotype III isolate 7507-03 expressing pbp2x Q557E mutant and multilocus sequence type ST19 by broth dilution method; assay type: functional
[16] = test system: Streptococcus sp. 'group B'; assay: Antimicrobial activity against group B Streptococcus sp. 'group B' serotype II isolate 9051-04 by broth dilution method; assay type: functional
[17] = test system: Streptococcus sp. 'group B'; assay: Antimicrobial activity against group B Streptococcus sp. 'group B' serotype V isolate 3386-05 by broth dilution method; assay type: functional
[18] = test system: Streptococcus sp. 'group B'; assay: Antimicrobial activity against group B Streptococcus sp. 'group B' serotype III isolate 3444-99 by broth dilution method; assay type: functional
[19] = test system: Streptococcus sp. 'group B'; assay: Antimicrobial activity against group B Streptococcus sp. 'group B' serotype IA isolate 5662-05 by broth dilution method; assay type: functional
[20] = test system: Streptococcus sp. 'group B'; assay: Antimicrobial activity against group B Streptococcus sp. 'group B' serotype IB isolate 5436-03 by broth dilution method; assay type: functional
[21] = test system: Streptococcus sp. 'group B'; assay: Antimicrobial activity against group B Streptococcus sp. 'group B' serotype III isolate 3789-04 expressing pbp2x Q557E mutant and multilocus sequence type ST19 by broth dilution method; assay type: functional
[22] = test system: Streptococcus sp. 'group B'; assay: Antimicrobial activity against group B Streptococcus sp. 'group B' serotype IA isolate 6649-05 by broth dilution method; assay type: functional
[23] = test system: Streptococcus sp. 'group B'; assay: Antimicrobial activity against group B Streptococcus sp. 'group B' serotype V isolate 5677-04 by broth dilution method; assay type: functional
[24] = test system: Streptococcus sp. 'group B'; assay: Antimicrobial activity against group B Streptococcus sp. 'group B' serotype III isolate 8607-03 expressing pbp2x Q557E mutant and harboring plasmid expressing wild-type pbp2x by broth dilution method; assay type: functional
[25] = test system: Streptococcus sp. 'group B'; assay: Antimicrobial activity against group B Streptococcus sp. 'group B' serotype IV isolate 3454-03 by broth dilution method; assay type: functional

| Compound | MIC [1] | MIC [2] | MIC [3] | MIC [4] | MIC [5] | MIC [6] | MIC [7] | MIC [8] | MIC [9] | MIC [10] | MIC [11] | MIC [12] | MIC [13] | MIC [14] | MIC [15] | MIC [16] | MIC [18] | MIC [19] | MIC [20] | MIC [21] | further results |
| --- | --- | --- | --- | --- | --- | --- | --- | --- | --- | --- | --- | --- | --- | --- | --- | --- | --- | --- | --- | --- | --- |
| CO[C@@]1(NC(=O)Cc2cccs2)C(=O)N2C(C(=O)O)=C(COC(N)=O)CS[C@@H]21 [CEFOXITIN] | 4 µg/mL (≈ 9.36 µM) | 8 µg/mL (≈ 18.7 µM) | 16 µg/mL (≈ 37.4 µM) | 16 µg/mL (≈ 37.4 µM) | 16 µg/mL (≈ 37.4 µM) | 4 µg/mL (≈ 9.36 µM) | 2 µg/mL (≈ 4.68 µM) | 4 µg/mL (≈ 9.36 µM) | 8 µg/mL (≈ 18.7 µM) | 2 µg/mL (≈ 4.68 µM) | 16 µg/mL (≈ 37.4 µM) | 8 µg/mL (≈ 18.7 µM) | 8 µg/mL (≈ 18.7 µM) | 4 µg/mL (≈ 9.36 µM) | 16 µg/mL (≈ 37.4 µM) | 8 µg/mL (≈ 18.7 µM) | 8 µg/mL (≈ 18.7 µM) | 8 µg/mL (≈ 18.7 µM) | 16 µg/mL (≈ 37.4 µM) | 16 µg/mL (≈ 37.4 µM) | MIC [17]: 16 µg/mL (≈ 37.4 µM); MIC [22]: 4 µg/mL (≈ 9.36 µM); MIC [23]: 16 µg/mL (≈ 37.4 µM); MIC [24]: 2 µg/mL (≈ 4.68 µM); MIC [25]: 8 µg/mL (≈ 18.7 µM) |
| CO/N=C(\C(=O)N[C@@H]1C(=O)N2C(C(=O)O)=C(COC(N)=O)CS[C@H]12)c1ccco1 [CEFUROXIME] | 0.06 µg/mL (≈ 0.141 µM) | 0.06 µg/mL (≈ 0.141 µM) | 0.06 µg/mL (≈ 0.141 µM) | 0.25 µg/mL (≈ 0.589 µM) | 0.12 µg/mL (≈ 0.283 µM) | 0.06 µg/mL (≈ 0.141 µM) | 0.06 µg/mL (≈ 0.141 µM) | 0.12 µg/mL (≈ 0.283 µM) | 0.12 µg/mL (≈ 0.283 µM) | 0.06 µg/mL (≈ 0.141 µM) | 0.5 µg/mL (≈ 1.18 µM) | 0.06 µg/mL (≈ 0.141 µM) | 0.06 µg/mL (≈ 0.141 µM) | 0.06 µg/mL (≈ 0.141 µM) | 0.12 µg/mL (≈ 0.283 µM) | 0.06 µg/mL (≈ 0.141 µM) | 0.06 µg/mL (≈ 0.141 µM) | 0.03 µg/mL (≈ 0.0707 µM) | 0.25 µg/mL (≈ 0.589 µM) | 0.12 µg/mL (≈ 0.283 µM) | MIC [23]: 0.12 µg/mL (≈ 0.283 µM); MIC [24]: 0.06 µg/mL (≈ 0.141 µM); MIC [25]: 0.06 µg/mL (≈ 0.141 µM) |
| CC1(C)S[C@@H]2[C@H](NC(=O)Cc3ccccc3)C(=O)N2[C@H]1C(=O)O [PENICILLIN G] | 0.06 µg/mL (≈ 0.179 µM) | 0.06 µg/mL (≈ 0.179 µM) | 0.06 µg/mL (≈ 0.179 µM) | 0.12 µg/mL (≈ 0.359 µM) | 0.12 µg/mL (≈ 0.359 µM) | 0.12 µg/mL (≈ 0.359 µM) | 0.06 µg/mL (≈ 0.179 µM) | 0.12 µg/mL (≈ 0.359 µM) | 0.12 µg/mL (≈ 0.359 µM) | 0.015 µg/mL (≈ 0.0449 µM) | 0.12 µg/mL (≈ 0.359 µM) | 0.06 µg/mL (≈ 0.179 µM) | 0.06 µg/mL (≈ 0.179 µM) | 0.12 µg/mL (≈ 0.359 µM) | 0.12 µg/mL (≈ 0.359 µM) | 0.06 µg/mL (≈ 0.179 µM) | 0.06 µg/mL (≈ 0.179 µM) | 0.06 µg/mL (≈ 0.179 µM) | 0.03 µg/mL (≈ 0.0897 µM) | 0.12 µg/mL (≈ 0.359 µM) | MIC [17]: 0.03 µg/mL (≈ 0.0897 µM); MIC [22]: 0.12 µg/mL (≈ 0.359 µM); MIC [23]: 0.12 µg/mL (≈ 0.359 µM); MIC [24]: 0.015 µg/mL (≈ 0.0449 µM); MIC [25]: 0.12 µg/mL (≈ 0.359 µM) |

— ChEMBL document CHEMBL1275482, “Point mutation in the group B streptococcal pbp2x gene conferring decreased susceptibility to beta-lactam antibiotics” (2008)
